In the test the target is soluble guanylate cyclase (sGC) (Homo sapiens (Human), UniProt Q02108+Q02153). Put plainly: sGC-HEK-cGMP assay, new protocol with DETA-NONOate, LC/MS detection (Example 2C). Type of test: cell-based. The conditions noted are these: read-out: Absolute EC50 (uM) - binned. As for the experimental part:
Human embryonic kidney cells (HEK293), endogenously expressing soluble guanylate cyclase (sGC), were used to evaluate the activity of test compounds. Compounds stimulating the sGC enzyme should cause an increase in the intracellular concentration of cGMP. HEK 293 cells were seeded in Dulbecco's Modification of Eagle's Medium supplemented with fetal bovine serum (10% final) and penicillin (100 U/mL)/streptomycin (100 μg/mL) in a 50 μL volume at a density of 1.5×10^4 cells/well in a poly-D-lysine coated 384 well flat bottom plate. Cells were incubated overnight at 37° C. in a humidified chamber with 5% CO2. Medium was aspirated and cells were washed with 1× Hank's Buffered Saline Salt Solution (50 μL). Cells were then incubated for 15 minutes at 37° C. with 50 μL of a 0.5 mM 3-isobutyl-1-methylxanthine (IBMX) solution. Test article and Diethylenetriamine NONOate (DETA-NONOate) solutions (x μM concentration for test article solution and 10 μM concentration for DETA-NONOate solution; wherein x is one of the following concentrations);
were then added to the assay mixture and the resulting mixture incubated at 37° C. for 20 minutes. After the 20 minute incubation, the assay mixture was aspirated and 10% acetic acid containing 150 ng/mL+3-cGMP (internal standard for LCMS) (50 μL) was added to the cells. The plate was incubated at 4° C. for 30 minutes in the acetic acid solution to stop the reaction and lyse the cells. The plates were then centrifuged at 1,000 g for 3 minutes at 4° C. and the supernatant transferred to a clean reaction plate for LCMS analysis.
cGMP concentrations were determined from each sample using the LCMS conditions below (Table 5) and calculated standard curve.
Data were normalized to a high control using the following equation: 100*(Sample−Low Control)/(High Control−Low Control), where the low control is the average of 16 samples treated with 1% DMSO, and the high control is the average of 16 samples treated with 30 μM of 1-329 Data were fit using a 4-parameter fit (log(agonist) vs. response—variable slope) using GraphPad Prism Software v.5. n=2 for all compounds. […] Compounds failing to elicit a minimum response of 50% are reported as >30 μM.

Some results are limits rather than exact numbers.

soluble guanylate cyclase (sGC), sequence (Q02153 whole entry): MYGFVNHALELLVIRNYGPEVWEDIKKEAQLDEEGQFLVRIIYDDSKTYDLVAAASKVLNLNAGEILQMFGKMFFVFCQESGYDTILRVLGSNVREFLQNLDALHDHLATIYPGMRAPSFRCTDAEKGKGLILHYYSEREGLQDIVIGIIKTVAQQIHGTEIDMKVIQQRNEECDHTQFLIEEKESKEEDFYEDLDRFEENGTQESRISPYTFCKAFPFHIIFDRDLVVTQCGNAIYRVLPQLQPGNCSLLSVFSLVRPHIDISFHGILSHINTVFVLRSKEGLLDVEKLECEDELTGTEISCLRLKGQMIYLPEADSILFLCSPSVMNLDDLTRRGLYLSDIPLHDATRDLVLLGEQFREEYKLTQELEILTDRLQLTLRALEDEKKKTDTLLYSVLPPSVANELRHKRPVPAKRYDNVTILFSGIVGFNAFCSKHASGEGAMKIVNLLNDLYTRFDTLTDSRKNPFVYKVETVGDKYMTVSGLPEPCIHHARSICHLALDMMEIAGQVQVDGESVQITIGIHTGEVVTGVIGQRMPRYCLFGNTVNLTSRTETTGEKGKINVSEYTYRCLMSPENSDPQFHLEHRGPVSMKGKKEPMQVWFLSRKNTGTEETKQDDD
soluble guanylate cyclase (sGC), sequence (Q02108 whole entry): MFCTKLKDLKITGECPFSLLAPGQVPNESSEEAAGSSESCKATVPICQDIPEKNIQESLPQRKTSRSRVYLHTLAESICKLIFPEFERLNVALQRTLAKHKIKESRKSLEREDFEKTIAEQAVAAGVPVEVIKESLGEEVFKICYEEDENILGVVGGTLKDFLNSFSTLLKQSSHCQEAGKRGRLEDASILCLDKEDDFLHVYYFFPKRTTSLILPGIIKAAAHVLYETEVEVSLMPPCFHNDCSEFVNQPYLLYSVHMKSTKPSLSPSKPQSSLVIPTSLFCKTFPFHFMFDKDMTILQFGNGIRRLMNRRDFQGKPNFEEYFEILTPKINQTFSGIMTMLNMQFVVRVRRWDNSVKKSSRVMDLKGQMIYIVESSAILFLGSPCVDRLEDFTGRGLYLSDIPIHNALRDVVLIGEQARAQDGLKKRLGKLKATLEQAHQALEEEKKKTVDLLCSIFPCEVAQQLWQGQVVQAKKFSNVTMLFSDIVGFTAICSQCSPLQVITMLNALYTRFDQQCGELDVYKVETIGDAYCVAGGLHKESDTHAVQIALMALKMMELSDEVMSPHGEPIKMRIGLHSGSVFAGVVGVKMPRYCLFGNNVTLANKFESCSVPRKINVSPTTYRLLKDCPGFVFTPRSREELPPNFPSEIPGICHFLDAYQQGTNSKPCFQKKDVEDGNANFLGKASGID

As a reminder, the EC50 is the concentration giving half of the maximal effect. In the case of `NC(=O)[C@H](CO)Nc1nc(-c2cc(-c3ccon3)n(Cc3ccccc3F)n2)ncc1F` [Compound I-335], the EC50 fell in the range of 0.101 to 1 µM.
The same measure for `O=C(NC(CO)CO)[C@@H](CO)Nc1nc(-c2cc(-c3ccon3)n(Cc3ccccc3F)n2)ncc1F` [Compound I-336]: > 1 µM; for `O=C(O)c1cccc2c1CN(c1nc(-c3cc(-c4ccon4)n(Cc4ccccc4F)n3)ncc1F)CC2` [Compound I-339]: < 0.1 µM; for `CN(CC1(C(=O)O)CC1)c1nc(-c2cc(-c3nccs3)n(Cc3ccccc3F)n2)ncc1F` [Compound I-343]: < 0.1 µM.
In the case of `CC(C)[C@H](CN(C)c1nc(-c2cc(-c3ccon3)n(Cc3ccccc3F)n2)ncc1F)NS(=O)(=O)C1CC1` [Compound I-344], the EC50 was < 0.1 µM.
The same measure for `CN(CC1(C(=O)O)CC1)c1nc(-c2cc(-c3cscn3)n(Cc3ccccc3F)n2)ncc1F` [Compound I-345]: < 0.1 µM.
The same measure for `Fc1ccccc1Cn1nc(-c2ncc(F)c(N3CCc4[nH]nc(C(F)(F)F)c4C3)n2)cc1-c1ccon1` [Compound I-346]: > 1 µM; for `O[C@@H]1[C@H](O)CN(c2nc(-c3cc(-c4ccon4)n(Cc4ccccc4F)n3)ncc2F)C[C@@H]1O` [Compound I-347]: < 0.1 µM.
The same measure for `NCC(O)CNc1nc(-c2cc(-c3ccon3)n(Cc3ccccc3F)n2)ncc1F` (stereo not shown) [Compound I-348]: > 1 µM; for `CS(=O)(=O)NCC(O)CNc1nc(-c2cc(-c3ccon3)n(Cc3ccccc3F)n2)ncc1F` (stereo not shown) [Compound I-349]: < 0.1 µM; for `O[C@@H]1CN(c2nc(-c3cc(-c4ccon4)n(Cc4ccccc4F)n3)ncc2F)CC[C@@H]1O` [Compound I-350]: < 0.1 µM.
As to `CC(C)(C)OC(=O)N1CC(O)(CNc2nc(-c3cc(-c4ccon4)n(Cc4ccccc4F)n3)ncc2F)C1` [Compound I-351], the EC50 was < 0.1 µM.
The same measure for `OCC(O)(CCl)CNc1nc(-c2cc(-c3ccon3)n(Cc3ccccc3F)n2)ncc1F` (stereo not shown) [Compound I-352]: < 0.1 µM; for `OC1(CNc2nc(-c3cc(-c4ccon4)n(Cc4ccccc4F)n3)ncc2F)CNC1` [Compound I-353]: > 1 µM; for `O=S(=O)(NC1(CNc2nc(-c3cc(-c4ccon4)n(Cc4ccccc4F)n3)ncc2F)CC1)C(F)(F)F` [Compound I-354]: < 0.1 µM.
As for `OCC(O)(CNc1nc(-c2cc(-c3ccon3)n(Cc3ccccc3F)n2)ncc1F)C(F)(F)F` (stereo not shown) [Compound I-355], the figure is < 0.1 µM; as for `O=C1NCC[C@@H]1Nc1nc(-c2cc(-c3ccon3)n(Cc3ccccc3F)n2)ncc1F` [Compound I-356], 0.101 to 1 µM; as for `OC(C1CN(c2nc(-c3cc(-c4ccon4)n(Cc4ccccc4F)n3)ncc2F)C1)(C(F)(F)F)C(F)(F)F` [Compound I-357], > 1 µM.
As for `O=C(O)C1(CNc2nc(-c3cc(-c4ccon4)n(Cc4ccccc4F)n3)ncc2F)CC1` [Compound I-358], the figure is < 0.1 µM.
Take `O=C(O)C1(c2ccc(Nc3nc(-c4cc(-c5ccon5)n(Cc5ccccc5F)n4)ncc3F)cc2)CC1` [Compound I-360]: the EC50 was < 0.1 µM.
On to `CC(=O)c1cc(-c2ncc(F)c(NCC(O)(C(F)(F)F)C(F)(F)F)n2)nn1Cc1ccccc1F` [Compound I-362], for which the EC50 was 0.101 to 1 µM.
The same measure for `O=S(=O)(O)C1CCN(c2nc(-c3cc(-c4ccon4)n(Cc4ccccc4F)n3)ncc2F)CC1` [Compound I-363]: > 1 µM.
The same measure for `Oc1n[nH]c2c1CCN(c1nc(-c3cc(-c4ccon4)n(Cc4ccccc4F)n3)ncc1F)C2` [Compound I-370]: < 0.1 µM.
As for `CN(Cc1nc(C(=O)O)cs1)c1nc(-c2cc(-c3ccon3)n(Cc3ccccc3F)n2)ncc1F` [Compound I-373], the figure is 0.101 to 1 µM.
As for `O=C(O)c1cccc(CCNc2nc(-c3cc(-c4ccon4)n(Cc4ccccc4F)n3)ncc2F)c1` [Compound I-377], the concentration for a half-maximal effect (EC50) is < 0.1 µM.
As for `CCOC(=O)C1=C(O)CN(c2nc(-c3cc(-c4ccon4)n(Cc4ccccc4F)n3)ncc2F)CC1` [Compound I-378], the figure is < 0.1 µM.
The same measure for `O=C(O)[C@H]1CCC[C@@H](Nc2nc(-c3cc(-c4ccon4)n(Cc4ccccc4F)n3)ncc2F)C1` [Compound I-380]: < 0.1 µM; for `O=S(=O)(CCNc1nc(-c2cc(-c3ccon3)n(Cc3ccccc3F)n2)ncc1F)NCC(F)(F)F` [Compound I-381]: < 0.1 µM; for `CNC(=O)C(C)(O)CN(C)c1nc(-c2cc(-c3ccon3)n(Cc3ccccc3F)n2)ncc1F` (stereo not shown) [Compound I-382]: < 0.1 µM.
As for `CN(CC(C)(C)C(=O)O)c1nc(-c2cc(-c3ccon3)n(Cc3ccccc3F)n2)ncc1F` [Compound I-383], the figure is < 0.1 µM; as for `CC(=O)NS(=O)(=O)CCNc1nc(-c2cc(-c3ccon3)n(Cc3ccccc3F)n2)ncc1F` [Compound I-385], 0.101 to 1 µM; as for `O=C(Nc1ccnc(-c2cc(-c3ccon3)n(Cc3ccccc3F)n2)n1)c1cc[nH]n1` [Compound I-386], > 1 µM.
`O=C(NC1CN(c2nc(-c3cc(-c4ccon4)n(Cc4ccccc4F)n3)ncc2F)C1)C(F)(F)F` [Compound I-387]: the EC50 was < 0.1 µM.
On to `CC(C)(C)OC(=O)NCCNc1nc(-c2cc(-c3ccon3)n(Cc3ccccc3F)n2)ncc1F` [Compound I-390], for which the EC50 was < 0.1 µM.
The same measure for `NCCNc1nc(-c2cc(-c3ccon3)n(Cc3ccccc3F)n2)ncc1F` [Compound I-391]: 0.101 to 1 µM; for `O=S(=O)(NCCNc1nc(-c2cc(-c3ccon3)n(Cc3ccccc3F)n2)ncc1F)C(F)(F)F` [Compound I-392]: < 0.1 µM.
As for `CN(CC(C)(O)C(N)=O)c1nc(-c2cc(-c3ccon3)n(Cc3ccccc3F)n2)ncc1F` (stereo not shown) [Compound I-393], the figure is 0.101 to 1 µM; as for `O=S(=O)(N1CC(Nc2nc(-c3cc(-c4ccon4)n(Cc4ccccc4F)n3)ncc2F)C1)C(F)(F)F` [Compound I-394], > 1 µM; as for `O[C@@H]1Cc2ccccc2[C@@H]1Nc1nc(-c2cc(-c3ccon3)n(Cc3ccccc3F)n2)ncc1F` [Compound I-395], < 0.1 µM.
The same measure for `OC1(C(F)(F)F)CN(c2nc(-c3cc(-c4ccon4)n(Cc4ccccc4F)n3)ncc2F)C1` [Compound I-396]: < 0.1 µM; for `OC1(CNc2nc(-c3cc(-c4ccon4)n(Cc4ccccc4F)n3)ncc2F)CCOCC1` [Compound I-397]: < 0.1 µM; for `O=C(O)C(CC(F)F)Nc1nc(-c2cc(-c3ccon3)n(Cc3ccccc3F)n2)ncc1F` (stereo not shown) [Compound I-398]: > 1 µM.
As to `OCC(CC(F)F)Nc1nc(-c2cc(-c3ccon3)n(Cc3ccccc3F)n2)ncc1F` (stereo not shown) [Compound I-399], the half-maximal effective concentration (EC50) is < 0.1 µM.
As for `COC(=O)[C@@H]1CCC(=O)N1c1nc(-c2cc(-c3ccon3)n(Cc3ccccc3F)n2)ncc1F` [Compound I-401], the figure is > 1 µM; as for `O=c1c(O)c(Nc2ccnc(-c3cc(-c4ccon4)n(Cc4ccccc4F)n3)n2)c1=O` [Compound I-402], > 1 µM; as for `O=C(O)C(Nc1nc(-c2cc(-c3ccon3)n(Cc3ccccc3F)n2)ncc1F)C(F)(F)F` (stereo not shown) [Compound I-403], 0.101 to 1 µM.
For `OCC(Nc1nc(-c2cc(-c3ccon3)n(Cc3ccccc3F)n2)ncc1F)C(F)(F)F` (stereo not shown) [Compound I-404], the EC50 was 0.101 to 1 µM.
Take `CC1(C(=O)O)CCCN(c2nc(-c3cc(-c4ccon4)n(Cc4ccccc4F)n3)ncc2F)C1` (stereo not shown) [Compound I-406]: the EC50 is < 0.1 µM.
For the compound `OCCNc1nc(-c2cc(-c3ccon3)n(Cc3ccccc3F)n2)ncc1F` [Compound I-407], the concentration giving a half-maximal response (EC50) was < 0.1 µM.
As for `OCCCNc1nc(-c2cc(-c3ccon3)n(Cc3ccccc3F)n2)ncc1F` [Compound I-408], the figure is < 0.1 µM; as for `CCN(CC1(C(=O)O)CC1)c1nc(-c2cc(-c3ccon3)n(Cc3ccccc3F)n2)ncc1F` [Compound I-409], < 0.1 µM; as for `Cc1cc(-c2ncc(F)c(=O)[nH]2)nn1Cc1ccccc1F` [Compound I-410], > 1 µM.
Turning to `Cc1cc(-c2ncc(F)c(N(C)CC3(C(=O)O)CC3)n2)nn1Cc1ccccc1F` [Compound I-411], the EC50 fell in the range of 0.101 to 1 µM.
The same measure for `Cc1cc(-c2ncc(F)c(N3CCC[C@H](C)[C@@H]3C(=O)O)n2)nn1Cc1ccccc1F` [Compound I-412]: > 1 µM; for `Cc1cc(-c2ncc(F)c(NC(CO)CO)n2)nn1Cc1ccccc1F` [Compound I-413]: > 1 µM.
The same measure for `Cc1cc(-c2ncc(F)c(NCC(O)(C(F)(F)F)C(F)(F)F)n2)nn1Cc1ccccc1F` [Compound I-414]: > 1 µM; for `O=C(Nc1nc(-c2cc(-c3ccon3)n(Cc3ccccc3F)n2)ncc1F)C1(C(F)(F)F)CC1` [Compound I-415]: > 1 µM; for `OCC(CO)Nc1cnnc(-c2cc(-c3ccon3)n(Cc3ccccc3F)n2)n1` [Compound I-416]: > 1 µM.

The values are drawn from patent publication US10183021B2, “sGC stimulators” (Ironwood Pharmaceuticals, Inc., priority 2013, dated 2019).
